What follows are compounds tested against T1, Human ATX protein (Homo sapiens, UniProt Q13822) (assay: ATX biochemical FRET assay with FS-3 substrate). Settings: FS-3 substrate 2 μM, ATX 1.0 μg/mL, 30 min preincubation, 2 hours at room temperature.
T1 construct: made in house
Source text: ATX (Autotaxin) is a 125 KDa glycoprotein with lysophospholipase D (LPLD) activity that generates the bioactive lipid lysophosphatidic acid (LPA) from lysophosphatidylcholine (LPC). The ATX biochemical assay utilizes a FRET (fluorescence resonance energy transfer) technology platform. The fluorescence signal of FRET substrate FS-3 is quenched due to intra-molecular FRET of a fluorophore to a non-fluorescing quencher (Ferguson, C. G., et al., Org Lett. 2006 May 11; 8(10): 2023-2026, which is incorporated by reference in its entirety). ATX catalyzes the hydrolysis of the substrate which separates the dabsyl quencher from the fluorescein reporter, which becomes fluorescent. The reaction is monitored by a SpectraMax M5 (Molecular Devices, Sunnyvale, Calif.) with at excitation wavelength 485 nm and emission wavelength […].
Fatty acid free-BSA (Sigma A8806): 10 mg/mL in H2O, stored at 4° C.
2×ATX assay buffer: 100 mM Tris, 280 mM NaCl, 10 mM KCl, 2 mM CaCl2, 2 mM MgCl2, pH 7.4.
Human ATX protein: expressed and purified in house. Stored at −80° C.
Substrate FS-3 (Echelon, L-2000): 100 μg in 77.74.L H2O (1 mM stock), stored at −20° C.
384-well flat bottom plates—Corning #3575.
Compound dilution—All compounds were provided at 10 mM in 100% DMSO. In the first well, 2 μL of 10 mM compound was added to 78 μL of DMSO (1:40 dilution). In subsequent wells 3-fold dilution (total 10 dilutions) were performed.
1×ATX assay buffer was made up with a final concentration of 1 mg/mL fatty acid free-BSA using 2×ATX assay buffer, 10 mg/ml fatty acid free-BSA and ddH2O.
ATX protein was diluted with 1×ATX assay buffer to a concentration of 1.32 μg/mL (1.32×). 38 μL was added per well to the assay plate. The final concentration of ATX in the reaction as 1.0 μg/mL.
2 μL per well of compounds was transferred to provide the desired concentration. The plate was centrifuged, then incubated at room temperature for 30 minutes on the shaker.
FS-3 was diluted with 1×ATX assay buffer to a concentration of FS-3 of 10 μM (5×). Then, 10 μL was added per well to the assay plate. The final concentration of FS-3 in the reaction was 2 μM. The plate was centrifuged. The plate was kept shaking at room temperature for 2 hours. Because FS-3 substrate is light sensitive, plates were kept covered and protected from light.
Fluorescence was measured using SpectraMax M5 (excitation at 485 nm/emission at 538 nm, top read).

Row | IC50 [nM] | Structure (SMILES)
1 | ≤ 250 | O=C(O)C1CC(O)CN(Cc2ccc3c(C(F)(F)F)c(O[C@H]4CC[C@@H](C(F)(F)F)CC4)ccc3c2)C1 (relative stereo) [Example 81, 1-((5-(trifluoromethyl)-6-(cis-4-(trifluoromethyl)cyclohexyloxy)naphthalene-2-yl)methyl)-5-hydroxypiperidine-3-carboxylic acid]
2 | ≤ 500 | CC(C)CC(NC1CC(C(=O)O)C1(C)C)c1ccc2c(C(F)(F)F)c(O[C@H]3CC[C@@H](C)CC3)ccc2c1 (relative stereo) [Example 90, 2,2-dimethyl-3-(1-(6-((cis)-4-methylcyclohexyloxy)-5-(trifluoromethyl)naphthalen-2-yl)-3-methylbutylamino)cyclobutanecarboxylic acid]
3 | ≤ 100 | CC(c1ccc2c(C(F)F)c(O[C@H]3CC[C@@H](C)CC3)ccc2c1)N1CC(CC(=O)O)C1 (relative stereo) [Example 98, 1-(1-(5-(Difluoromethyl)-6-((cis-4-methylcyclohexyl)oxy)naphthalen-2-yl)ethyl)azetidine-3-acetic acid]
4 | ≤ 100 | CCC(c1ccc2c(C(F)F)c(O[C@H]3CC[C@@H](C)CC3)ccc2c1)N1CC(CC(=O)O)C1 (relative stereo) [Example 99, 1-(1-(5-(Difluoromethyl)-6-((cis-4-methylcyclohexyl)oxy)naphthalen-2-yl)propyl)azetidine-3-acetic acid]
5 | ≤ 500 | O=C(O)C1CCC(NCc2ccc3c(C(F)(F)F)c(O[C@H]4CC[C@@H](C(F)(F)F)CC4)ccc3c2)C1 (single isomer, unassigned) [Example 3b, 3-(((5-(trifluoromethyl)-6-((cis-4-(trifluoromethyl)cyclohexyl)oxy)-naphthalen-2-yl)methyl)amino)cyclopentanecarboxylic acid]
6 | ≤ 500 | CC1(C)C(NCc2ccc3c(C(F)(F)F)c(O[C@H]4CC[C@@H](C(F)(F)F)CC4)ccc3c2)CC1C(=O)O (stereo partly drawn) [Example 1, 2,2-dimethyl-3-(((5-(trifluoromethyl)-6-((cis-4-(trifluoromethyl)cyclo-hexyl)oxy)naphthalen-2-yl)methyl)amino)cyclobutanecarboxylic acid]
7 | ≤ 500 | O=C(O)C1CCN(Cc2ccc3c(C(F)(F)F)c(O[C@H]4CC[C@@H](C(F)(F)F)CC4)ccc3c2)CC1 [Example 2, 1-((5-(trifluoromethyl)-6-((cis-4-(trifluoromethyl)cyclohexyl)oxy)-naphthalen-2-yl)methyl)piperidine-4-carboxylic acid]
8 | ≤ 500 | O=C(O)C[C@H]1CCCN(Cc2ccc3c(C(F)(F)F)c(OC4CCC(F)(F)CC4)ccc3c2)C1 [Example 4, (R)-2-(1-((6-((4,4-difluorocyclohexyl)oxy)-5-(trifluoromethyl)naphthalen-2-yl)methyl)piperidin-3-yl)acetic acid]
9 | ≤ 250 | FC(F)(F)c1c(O[C@H]2CC[C@@H](C(F)(F)F)CC2)ccc2cc(CN3CCC(c4nn[nH]n4)CC3)ccc12 [Example 5, 4-(2H-tetrazol-5-yl)-1-((5-(trifluoromethyl)-6-((cis-4-(trifluoromethyl)cyclohexyl)oxy)naphthalen-2-yl)methyl)piperidine]
10 | ≤ 100 | CC[C@H]1CC[C@@H](Oc2ccc3cc(C(C)N4CCC[C@H](CC(=O)O)C4)ccc3c2C(F)(F)F)CC1 (stereo partly drawn) [Example 6, 2-((3R)-1-(1-(6-((cis-4-ethylcyclohexyl)oxy)-5-(trifluoromethyl)naphthalen-2-yl)ethyl)piperidin-3-yl)acetic acid]
11 | ≤ 100 | CCC(c1ccc2c(C(F)(F)F)c(O[C@H]3CC[C@@H](CC)CC3)ccc2c1)N1CCC[C@H](CC(=O)O)C1 (stereo partly drawn) [Example 7, 2-((3R)-1-(1-(6-((cis-4-ethylcyclohexyl)oxy)-5-(trifluoromethyl)naphthalen-2-yl)propyl)piperidin-3-yl)acetic acid]
12 | ≤ 500 | C[C@H]1CC[C@@H](Oc2ccc3cc(CN4CCOC(CC(=O)O)C4)ccc3c2C(F)(F)F)CC1 (stereo partly shown) [Example 8]
13 | ≤ 250 | C[C@H]1CC[C@@H](Oc2ccc3cc(CN4CCCC(CC(=O)O)C4)ccc3c2C(F)(F)F)CC1 (stereo partly drawn) [Example 9, 2-(1-((6-((cis-4-methylcyclohexyl)oxy)-5-(trifluoromethyl)naphthalen-2-yl)methyl)piperidin-3-yl)acetic acid]
14 | ≤ 100 | CCC(c1ccc2c(C(F)(F)F)c(O[C@H]3CC[C@@H](C)CC3)ccc2c1)N1CCC[C@H](CC(=O)O)C1 (stereo partly drawn) [Example 10, 2-((3R)-1-(1-(6-((cis-4-Methylcyclohexyl)oxy)-5-(trifluoromethyl)naphthalen-2-yl)propyl)piperidin-3-yl)acetic acid]
15 | ≤ 500 | C[C@H]1CC[C@@H](Oc2ccc3cc(C(C(=O)O)N4CCC(C(=O)O)CC4)ccc3c2C(F)(F)F)CC1 (stereo partly drawn) [Example 11, 1-(Carboxy(6-((cis-4-methylcyclohexyl)oxy)-5-(trifluoromethyl)naphthalen-2-yl)methyl)piperidine-4-carboxylic acid]
16 | ≤ 500 | C[C@H]1CC[C@@H](Oc2ccc3cc(C(N4CCC(C(=O)O)CC4)C(F)(F)F)ccc3c2C(F)(F)F)CC1 (stereo partly drawn) [Example 12, 1-(2,2,2-Trifluoro-1-(6-((cis-4-methylcyclohexyl)oxy)-5-(trifluoromethyl)naphthalen-2-yl)ethyl)piperidine-4-carboxylic acid]
17 | ≤ 100 | C[C@H]1CC[C@@H](Oc2ccc3cc(CN4CCC(C(=O)O)CC4)ccc3c2C(F)F)CC1 [Example 13, 1-((5-(Difluoromethyl)-6-((cis-4-methylcyclohexyl)oxy)naphthalen-2-yl)methyl)piperidine-4-carboxylic acid]
18 | ≤ 250 | O=C(O)C[C@H]1CCCN(Cc2ccc3c(C(F)(F)F)c(O[C@H]4CC[C@@H](C(F)(F)F)CC4)ccc3n2)C1 [Example 14, 2-((R)-1-(((5-(trifluoromethyl)-6-(cis-4-(trifluoromethyl)cyclohexyl)oxy)quinolin-2-yl)methyl)piperidin-3-yl)acetic acid]
19 | ≤ 250 | CC(NC1CC(C(=O)O)C1(C)C)c1ccc2c(C(F)(F)F)c(O[C@H]3CC[C@@H](C(F)(F)F)CC3)ccc2n1 (stereo partly drawn) [Example 15, 2,2-dimethyl-3-(((1-(5-(trifluoromethyl)-6-(cis-4-(trifluoromethyl)cyclo-hexyl)oxy)quinolin-2-yl)ethyl)amino)cyclobutanecarboxylic acid]
20 | ≤ 100 | O=C(NCCCP(=O)(O)O)c1ccc2c(C(F)(F)F)c(OCc3cc(Cl)cc(Cl)c3)ccc2c1 [Example 18, (3-(6-((3,5-dichlorobenzyl)oxy)-5-(trifluoromethyl)-2-naphthamido)propyl)phosphonic acid]
21 | ≤ 100 | O=C(NCCCP(=O)(O)O)c1ccc2c(C(F)(F)F)c(O[C@H]3CC[C@@H](C(F)(F)F)CC3)ccc2c1 [Example 19, (3-(5-(trifluoromethyl)-6-((cis-4-(trifluoromethyl)cyclohexyl)oxy)-2-naphthamido)propyl)phosphonic acid]
22 | ≤ 250 | O=C(O)C1CCN(Cc2ccc3c(C(F)F)c(O[C@H]4CC[C@@H](C(F)(F)F)CC4)ccc3c2)CC1 [Example 21, 1-((5-(difluoromethyl)-6-((cis-4-(trifluoromethyl)cyclohexyl)oxy)naphthalen-2-yl)methyl)piperidine-4-carboxylic acid]
23 | ≤ 250 | O=C(O)C1CCN(Cc2ccc3c(C(F)(F)F)c(N[C@H]4CC[C@@H](C(F)(F)F)CC4)ccc3c2)CC1 [Example 22, 1-((5-(trifluoromethyl)-6-((cis-4-(trifluoromethyl)cyclohexyl)amino)naphthalen-2-yl)methyl)piperidine-4-carboxylic acid]
24 | ≤ 500 | O=C(O)c1ccc(CNC(=O)c2ccc3c(C(F)(F)F)c(O[C@H]4CC[C@@H](C(F)(F)F)CC4)ccc3c2)nc1 [Example 23, 6-((5-(trifluoromethyl)-6-((cis)-4-(trifluoromethyl)cyclohexyloxy)-2-naphthamido)methyl)nicotinic acid]
25 | ≤ 500 | O=C(O)[C@@H]1CCCN(Cc2ccc3c(C(F)(F)F)c(O[C@H]4CC[C@@H](C(F)(F)F)CC4)ccc3c2)C1 [Example 24, (R)-1-((5-(trifluoromethyl)-6-((cis)-4-(trifluoromethyl)cyclohexyloxy)naphthalen-2-yl)methyl)piperidine-3-carboxylic acid]
